How the values were obtained:
[1] = identification of atRAL Schiff base conjugates with MB compounds in mouse eyes; type: in vivo; conditions: Abca4−/−Rdh8−/− mice, 50 mg/kg oral gavage, bright light exposure 10 min; mass spectrometry versus standards
Method: FIGS. 6(A-B) illustrate identification of retinal Schiff base conjugates in Abca4^−/− Rdh8^−/− mice treated with MB-005 and MB-006. Following drug administration, mice were exposed to intense light for 10 min. After a 30 min recovery under darkness, animals were sacrificed and retinoids were extracted from the eyes. (A, B) Shown in the top panels are selective ion chromatograms for MB-005-retinal conjugates (A, at m/z=572.6) and MB-006-retinal conjugates (B, at m/z=588.6). Panels on the bottom show the mass spectra of the peaks coinciding with the retention times of their authentic standards. The insets display the MS/MS fragmentation patterns of the two imines, which were identical to the corresponding standards.
MB-005 or MB-006 (50 mg/kg) were administrated by oral gavage to Abca4^−/−Rdh8^−/− mice 24 h prior to light exposure. After exposure to fluorescent light for 10 min, animals were euthanized and their eyes were collected and homogenized in acetonitrile. After centrifugation, the supernatant was concentrated to 400 μl under vacuum. […]
With the effects of these compounds on visual cycle function established we next sought to examine their ability to form retinal-Schiff base conjugates in vivo. […] Retinoids were extracted and analyzed by mass spectrometry. […]

[2] = system: C57BL/6J mice; experiment: in vivo dark-adapted ERG recordings after bleach; parameters: species or system mouse; conditions: gavage 1 day before bleach, doses indicated effective by retinoid analysis
Method: FIG. 5 illustrates ERG responses of mice treated with visual cycle modulators. Oral gavage was used to administer vehicle or MB compounds to mice 24 h prior to 10 min light exposure followed by 6 h of dark adaptation. Dark-adapted ERGs were obtained to strobe flash stimuli.
C57BL/6J mice aged 1.5-4 months were anesthetized with ketamine (80 mg/kg) and xylazine (16 mg/kg) after overnight dark adaptation. Mydriatic eye drops were used to dilate the pupil (1% tropicamide; 2.5% phenylephrine). ERGs were obtained using an active electrode that contacted the corneal surface; needle electrodes placed in the cheek and tail provided reference and ground leads, respectively. Strobe stimuli were presented to the dark-adapted eye in an LKC (Gaithersburg, MD) ganzfeld. Responses were amplified, averaged and stored using an LKC UTAS E-3000 signal averaging system.
Baseline dark-adapted ERGs were recorded from each mouse. After a minimum 1 day interval, MB compounds or vehicle were administered by gavage at 9 a.m. The next morning, mydriatic eye drops were used to dilate the pupils and mice were then exposed to a 10-minute 10,000 lux bleach. Mice were dark-adapted for 6 hours, after which ERGs were recorded.
We next examined the impact of these compounds on retinal function, measured using the electroretinogram (ERG). FIG. 5 presents a family of dark-adapted ERGs measured 6 hours after mice underwent a 95% bleach presented 1 day following gavage administration of vehicle or MB compound molecules at doses indicated to be effective by retinoid analysis. […] In comparison, mice administered with MB compound molecules had had reduced amplitude ERGs indicative of incomplete bleaching recovery. […] In response to higher luminance stimuli, reproducible responses were observed. That these reflect dark-adapted cone-mediated responses is supported by their similarity to responses obtained from transducin KO mice which lack rod-mediated activity, while retaining normal cone-mediated responses, and have a very similar ERG phenotype.

[3] = system: Abca4−/−Rdh8−/− mice; experiment: protection against light-induced retinal degeneration (OCT, ONL thickness); type: in vivo, mouse
Method: FIGS. 7(A-B) illustrate protective effects of MB compounds against light-induced retinal degeneration in Abca4^−/−Rdh8^−/− mice. Drugs were administrated at the indicated doses to 4-6 week-old Abca4^−/−Rdh8^−/− mice (weight ˜20 g) by oral gavage. After a 24 h dark adaptation, mice were exposed to 10,000 lux light for 30 min and then returned to a dark environment for 3 days. (A) Representative OCT images of mice treated with MB compounds. A dramatic decrease in the ONL indicates advanced retinal degeneration. The black scale beside the DMSO image represents 50 μm. (B) Retinal protective effects exerted by MB compounds as quantified by average ONL thickness. Only non-scattering ONL layers were measured. For images in which the ONL layer boundary was obscured due to light scattering, the ONL length was recorded as 0 μm. Error bars represent standard deviations; n=3-5 for each group.
Abca4^−/−Rdh8^−/− mice on a C57BL/6J background were generated as previously described. Male and female WT mice with C57BL/6J backgrounds were obtained from The Jackson Laboratory. Abca4^−/−Rdh8^−/− mice used in this study were homozygous for the Leu450 allele of Rpe65 as determined by a genotyping protocol published previously and free of Crb1/rd8 and rd/rd mutations Animals were housed either in the animal facility at the Case Western Reserve University School of Medicine, where they received a standard chow diet (LabDiet 5053) and were maintained under a 12-h light (˜300 lux) and 12-h dark cycle or at the Cole Eye Institute animal facility where they were. Mice were dark adapted overnight prior to all experiments. A cohort of Rdh8^−/−Abca4^−/− or C57BL/6J mice was used when they reached the age of 1 to 2 months, and both sexes were used evenly. All tested primary amines were suspended in 100 μl soybean oil with less than 10% (v/v) DMSO and were administered by oral gavage with a 22-gauge feeding needle. Experimental manipulations in the dark were done under dim red light transmitted through a Kodak No. 1 Safelight Filter (transmittance >560 nm).
After dark adaptation for 24 h, Abca4^−/−Rdh8^−/− mice with pupils dilated by 1% tropicamide were exposed to fluorescent light (10,000 lux; 150 W spiral lamp; Commercial Electric) for 30 min in a white paper bucket (Papersmith) and then kept in the dark for an additional 3 days. Development of retinal degeneration was then determined by ultra-high-resolution spectral domain OCT (SD-OCT; Bioptigen) and ERG as previously described.
To examine the ability of […] cause retinal damage in the absence of treatment with protective agents. Three days later retinas were imaged in vivo by optical coherence tomography, with preservation of outer nuclear layer thickness and light scattering properties serving as markers for retinal health. MB-001, which is capable of preventing light-induced retinal degeneration through both direct RPE65 inhibition as well as retinal sequestration served as a positive control for these experiments.

CC(C)c1cc(OCC2CCCCC2)cc(C(O)CCN)c1 (centres unmarked) [MB-005, 3-Amino-1-(3-(cyclohexylmethoxy)-5-isopropylphenyl)propan-1-ol]
retinal Schiff base adducts in eye extracts [1]: contained compounds matching the expected molecular weight of the respective Schiff base adducts | dark-adapted ERG 6 hours after 95% bleach [2]: less incomplete recovery | protective effect compared to the MB-001 control ([3]; 0.5 mg/mouse oral gavage 24 h before light): ~50% | protection against light-induced retinal degeneration ([3]; 2 mg/mouse oral gavage 24 h before light): fully protected | protective effect compared to the MB-001 control ([3]; doubling of 0.5 mg/mouse (1 mg/mouse), oral gavage 24 h before light): ~80%
